Reference: US10294202B2, “Pyrrolidinones as herbicides” (FMC Corporation, priority 2013, dated 2019)

Columns and labels:
barnyardgrass = experiment: Test A pre-/postemergence herbicide test; assay type: in vivo, Echinochloa crus-galli
Method in brief: (§1)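 Seeds sown in loam soil/sand blend received a preemergence directed soil spray of test chemical in non-phytotoxic solvent with surfactant; postemergence plants (2–10 cm, one- to two-leaf stage) were sprayed with the same formulation. After about 10 days in greenhouse, injury was rated visually versus untreated controls, 0 (no effect) to 100 (complete control).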

pigweed = experiment: Test A pre-/postemergence herbicide test; assay type: in vivo, Amaranthus retroflexus
Method in brief: as §1

corn [1] = experiment: Test A pre-/postemergence herbicide test; assay type: in vivo, Zea mays
Method in brief: as §1

ducksalad = experiment: Test B flooded paddy test; assay type: in vivo, Heteranthera limosa; conditions: Flood, scale of 0 to 100 where 0 is no effect and 100 is complete control
Method in brief: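 Scoring: visual, compared with untreated controls, 0 = no effect through 100 = complete control, taken 13 to 15 days after treatment in the greenhouse. Compounds had been added to paddy water over soil flooded 3 cm deep at the plants' 2-leaf stage.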

blackgrass = experiment: Test C pre-/postemergence herbicide test; assay type: in vivo, Alopecurus myosuroides
Method in brief: (§2)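 Visual rating, 0 (no effect) to 100 (complete control), versus untreated controls after 13 to 15 days in the greenhouse. Pre: seeds in loam/sand, sprayed at planting. Post: 1- to 4-leaf plants (2 to 18 cm) in peat-based mix. Compounds in non-phytotoxic solvent plus surfactant.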

corn [2] = experiment: Test C pre-/postemergence herbicide test; assay type: in vivo, Zea mays
Method in brief: as §2

lambsquarters = experiment: Test C pre-/postemergence herbicide test; assay type: in vivo, Chenopodium album
Method in brief: as §2

morningglory = experiment: Test C pre-/postemergence herbicide test; assay type: in vivo, Ipomoea coccinea
Method in brief: as §2

nutsedge, yellow = experiment: Test C pre-/postemergence herbicide test; assay type: in vivo, Cyperus esculentus
Method in brief: as §2

soybean = experiment: Test C pre-/postemergence herbicide test; assay type: in vivo, Glycine max
Method in brief: as §2

oilseed rape = experiment: Test C pre-/postemergence herbicide test; assay type: in vivo, Brassica napus
Method in brief: as §2

[3] = 125 g ai/ha, visual rating, 0 to 100 scale, 0 no effect, 100 complete control, approximately 10 days, preemergence
[4] = Postemergence, 125 g ai/ha, 0 to 100 scale, 0 is no effect, 100 is complete control
[5] = preemergence, 500 g ai/ha, 0 to 100 scale, 0 is no effect and 100 is complete control
[6] = Postemergence, 31 g ai/ha, scale 0 to 100 (0 no effect, 100 complete control)
[7] = Postemergence, 62 g ai/ha, scale 0 (no effect) to 100 (complete control)
[8] = Postemergence, 125 g ai/ha, scale 0 to 100 (0 no effect, 100 complete control)
[9] = Postemergence, 250 g ai/ha, scale 0 to 100 (0 no effect, 100 complete control)
[10] = Preemergence, 31 g ai/ha, scale 0 to 100, 0 is no effect and 100 is complete control
[11] = Preemergence, 125 g ai/ha, scale 0 to 100 (0 no effect, 100 complete control)
[12] = Preemergence, 62 g ai/ha, scale 0 to 100 (0 no effect, 100 complete control)
[13] = Postemergence, 500 g ai/ha, 0 to 100 scale (0 no effect, 100 complete control)
[14] = Preemergence, 125 g ai/ha, 0 to 100 scale where 0 is no effect and 100 is complete control

For `O=C1NCC(c2cccc(OC(F)F)c2)C1C(=O)Nc1ccccc1F` (stereo not drawn) [Compound 223], the “Plant response rating, Barnyardgrass” value (barnyardgrass; [3]) was 90, the “Plant response rating, Barnyardgrass” value (barnyardgrass; [4]) was 80 and the “Barnyardgrass plant response rating (0 to 100 scale, 0 is no effect, 100 is complete control)” value (barnyardgrass; Postemergence, 500 g ai/ha) was 80. The “Plant response rating, Barnyardgrass” value (barnyardgrass; [5]) was 90, the “Plant response rating, Pigweed” value (pigweed; [3]) was 20 and the “Plant response rating, Pigweed” value (pigweed; [4]) was 40. For the same compound, the “Pigweed plant response rating (0 to 100 scale, 0 is no effect, 100 is complete control)” value (pigweed; Postemergence, 500 g ai/ha) was 60, the “Plant response rating, Pigweed” value (pigweed; [5]) was 50 and the “Plant response rating, Corn” value (corn [1]; [4]) was 0. The “Corn plant response rating (0 to 100 scale, 0 is no effect, 100 is complete control)” value (corn [1]; Postemergence, 500 g ai/ha) was 50, the “Plant response rating, Ducksalad” value (ducksalad; 500 g ai/ha) was 100 and the “Plant response rating, Blackgrass” value (blackgrass; [6]) was 0. The “Plant response rating, Blackgrass” value (blackgrass; [7]) was 0, the “Plant response rating, Blackgrass” value (blackgrass; [8]) was 0 and the “Plant response rating, Blackgrass” value (blackgrass; [9]) was 0. For the same compound, the “Blackgrass plant response rating” value (blackgrass; [10]) was 35, the “Plant response rating, Blackgrass” value (blackgrass; Preemergence, 62 g ai/ha, scale 0 to 100) was 35 and the “Plant response rating, Blackgrass” value (blackgrass; [11]) was 85. The “Plant response rating (scale of 0 to 100), Blackgrass” value (blackgrass; Preemergence, 250 g ai/ha) was 85, the “Plant response rating, Corn” value (corn [2]; [6]) was 0 and the “Plant response rating, Corn” value (corn [2]; [7]) was 0. The “Plant response rating, Corn” value (corn [2]; [8]) was 0, the “Plant response rating, Corn” value (corn [2]; [9]) was 5 and the “Corn plant response rating” value (corn [2]; [10]) was 0. For the same compound, the “Corn plant response rating” value (corn [2]; [12]) was 0, the “Plant response rating, Corn” value (corn [2]; [11]) was 0 and the “Plant response rating (scale of 0 to 100), Corn” value (corn [2]; Preemergence, 250 g ai/ha) was 45. For the same compound, the “Plant response rating, Lambsquarters” value (lambsquarters; [6]) was 0, the “Plant response rating, Lambsquarters” value (lambsquarters; [7]) was 5 and the “Plant response rating, Lambsquarters” value (lambsquarters; [8]) was 35. For the same compound, the “Plant response rating, Lambsquarters” value (lambsquarters; [9]) was 60, the “Lambsquarters plant response rating” value (lambsquarters; [10]) was 70 and the “Lambsquarters plant response rating” value (lambsquarters; [12]) was 70. For the same compound, the “Plant response rating, Lambsquarters” value (lambsquarters; [11]) was 85, the “Plant response rating (scale of 0 to 100), Lambsquarters” value (lambsquarters; Preemergence, 250 g ai/ha) was 90 and the “Plant response rating, Morningglory” value (morningglory; [6]) was 0. The “Plant response rating, Morningglory” value (morningglory; [7]) was 0, the “Plant response rating, Morningglory” value (morningglory; [8]) was 0 and the “Plant response rating, Morningglory” value (morningglory; [9]) was 35. For the same compound, the “Morningglory plant response rating” value (morningglory; [10]) was 0, the “Morningglory plant response rating” value (morningglory; [12]) was 0 and the “Plant response rating, Morningglory” value (morningglory; [11]) was 10. The “Plant response rating (scale of 0 to 100), Morningglory” value (morningglory; Preemergence, 250 g ai/ha) was 20, the “Plant response rating, Nutsedge, Yellow” value (nutsedge, yellow; [6]) was 0 and the “Plant response rating, Nutsedge, Yellow” value (nutsedge, yellow; [7]) was 0. For the same compound, the “Plant response rating, Nutsedge, Yellow” value (nutsedge, yellow; [8]) was 0, the “Plant response rating, Nutsedge, Yellow” value (nutsedge, yellow; [9]) was 0 and the “Nutsedge, Yellow plant response rating” value (nutsedge, yellow; [10]) was 100. The “Nutsedge, Yellow plant response rating” value (nutsedge, yellow; [12]) was 0, the “Plant response rating, Nutsedge, Yellow” value (nutsedge, yellow; [11]) was 0 and the “Plant response rating (scale of 0 to 100), Nutsedge, Yellow” value (nutsedge, yellow; Preemergence, 250 g ai/ha) was 0. The “Plant response rating, Soybean” value (soybean; [6]) was 10, the “Plant response rating, Soybean” value (soybean; [7]) was 0 and the “Plant response rating, Soybean” value (soybean; [8]) was 0. The “Plant response rating, Soybean” value (soybean; [9]) was 30, the “Soybean plant response rating” value (soybean; [10]) was 0 and the “Soybean plant response rating” value (soybean; [12]) was 5. The “Plant response rating, Soybean” value (soybean; [11]) was 5, the “Plant response rating (scale of 0 to 100), Soybean” value (soybean; Preemergence, 250 g ai/ha) was 15 and the “Plant response rating, Oilseed Rape” value (oilseed rape; [6]) was 0. For the same compound, the “Plant response rating, Oilseed Rape” value (oilseed rape; [7]) was 0, the “Plant response rating, Oilseed Rape” value (oilseed rape; [8]) was 0 and the “Plant response rating, Oilseed Rape” value (oilseed rape; [9]) was 10. For the same compound, the “Oilseed Rape plant response rating” value (oilseed rape; [10]) was 0, the “Oilseed Rape plant response rating” value (oilseed rape; [12]) was 0 and the “Plant response rating, Oilseed Rape” value (oilseed rape; [11]) was 0. The “Plant response rating (scale of 0 to 100), Oilseed Rape” value (oilseed rape; Preemergence, 250 g ai/ha) was 5.

`O=C1NCC(c2ccc(C(F)(F)F)nc2)C1C(=O)Nc1ccccc1F` (racemic) [Compound 262] was tested, and the “Plant response rating, Barnyardgrass” value (barnyardgrass; [4]) was 60, the “Plant response rating, Barnyardgrass” value (barnyardgrass; [13]) was 70 and the “Plant response rating, Barnyardgrass” value (barnyardgrass; [14]) was 80. The “Plant response rating, Barnyardgrass” value (barnyardgrass; [5]) was 90, the “Plant response rating, Pigweed” value (pigweed; [4]) was 0 and the “Plant response rating, Pigweed” value (pigweed; [13]) was 0. The “Plant response rating, Pigweed” value (pigweed; [14]) was 50, the “Plant response rating, Pigweed” value (pigweed; [5]) was 70 and the “Plant response rating, Corn” value (corn [1]; [4]) was 0. The “Plant response rating, Corn” value (corn [1]; [13]) was 0, the “Plant response rating, Corn” value (corn [1]; [14]) was 0 and the “Plant response rating, Corn” value (corn [1]; [5]) was 0. For the same compound, the “Plant response rating, Ducksalad” value (ducksalad; 1000 g ai/ha) was 100, the “Blackgrass plant response rating” value (blackgrass; [10]) was 0 and the “Blackgrass plant response rating” value (blackgrass; [12]) was 0. For the same compound, the “Plant response rating, Blackgrass” value (blackgrass; [11]) was 0, the “Plant response rating (scale of 0 to 100), Blackgrass” value (blackgrass; Preemergence, 250 g ai/ha) was 0 and the “Corn plant response rating” value (corn [2]; [10]) was 0. The “Corn plant response rating” value (corn [2]; [12]) was 0, the “Plant response rating, Corn” value (corn [2]; [11]) was 10 and the “Plant response rating (scale of 0 to 100), Corn” value (corn [2]; Preemergence, 250 g ai/ha) was 10. For the same compound, the “Lambsquarters plant response rating” value (lambsquarters; [10]) was 100, the “Lambsquarters plant response rating” value (lambsquarters; [12]) was 70 and the “Plant response rating, Lambsquarters” value (lambsquarters; [11]) was 80. The “Plant response rating (scale of 0 to 100), Lambsquarters” value (lambsquarters; Preemergence, 250 g ai/ha) was 100, the “Morningglory plant response rating” value (morningglory; [10]) was 0 and the “Morningglory plant response rating” value (morningglory; [12]) was 0. The “Plant response rating, Morningglory” value (morningglory; [11]) was 10, the “Plant response rating (scale of 0 to 100), Morningglory” value (morningglory; Preemergence, 250 g ai/ha) was 10 and the “Nutsedge, Yellow plant response rating” value (nutsedge, yellow; [10]) was 75. The “Nutsedge, Yellow plant response rating” value (nutsedge, yellow; [12]) was 0, the “Plant response rating, Nutsedge, Yellow” value (nutsedge, yellow; [11]) was 0 and the “Plant response rating (scale of 0 to 100), Nutsedge, Yellow” value (nutsedge, yellow; Preemergence, 250 g ai/ha) was 0. For the same compound, the “Soybean plant response rating” value (soybean; [10]) was 0, the “Soybean plant response rating” value (soybean; [12]) was 0 and the “Plant response rating, Soybean” value (soybean; [11]) was 0. For the same compound, the “Plant response rating (scale of 0 to 100), Soybean” value (soybean; Preemergence, 250 g ai/ha) was 0, the “Oilseed Rape plant response rating” value (oilseed rape; [10]) was 0 and the “Oilseed Rape plant response rating” value (oilseed rape; [12]) was 35. For the same compound, the “Plant response rating, Oilseed Rape” value (oilseed rape; [11]) was 35 and the “Plant response rating (scale of 0 to 100), Oilseed Rape” value (oilseed rape; Preemergence, 250 g ai/ha) was 70.
